Experimental data as given in patent US11415579B2, “Assay for measuring a rate of reaction between a target and a ligand candidate” (Imperial College Innovations Ltd., priority 2016, dated 2022).

Legend:
Cdk2(C177A, F80C) = biological target: T1, Cdk2(C177A, F80C) (Homo sapiens, UniProt P24941, C177A/F80C); assay: Kinetic thiol consumption assay with Cdk2 mutant F80C, incl. kobs versus concentration (Kd, k2); type: binding; design: key to Rate enhancement, Cdk2 F80C: Cdk2 rate constant divided by model-thiol rate constant; conditions: additional mutation C177A; for Rate constant with Cdk2 F80C: Protein: Cdk2, cysteine position F80C, in h^-1
T1 construct: poly-histidine; made in house; host or cells: E. coli
Method in brief: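 His-tagged Cdk2(C177A/F80C) from E. coli or model thiol, 5 μM in degassed phosphate buffer pH 8 with TCEP beads, reacted with acrylamide ligands; fluorescence (ex/em 380/470 nm) normalized to DMSO control and fitted to first-order decay for kobs. Kd and k2 obtained from hyperbolic fit of kobs versus ligand concentration.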

Cdk2(N272C) (C177A) = biological target: T2, Cdk2(N272C) (C177A) (Homo sapiens, UniProt P24941, C177A/N272C); assay: Kinetic thiol consumption assay with Cdk2 mutant N272C; type: binding; design: key to Rate enhancement, Cdk2 N272: rate constant with Cdk2 ÷ rate constant with model thiol (fold); conditions: for Rate enhancement, Cdk2 N272: Cdk2 N272, additional mutation C177A; for Rate constant with Cdk2 N272C: Protein: Cdk2, cysteine position N272C, additional mutation C177A, in h^-1
T2 construct: poly-histidine; made in house; host or cells: E. coli
Method in brief: (§1)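 Read-out is fluorescence at 380/470 nm, taken after 1 h at room temperature and normalized to a DMSO/thiol-only control over time. Thiol (5 μM Cdk2 mutant or model thiol) was in degassed pH 8 phosphate buffer with 2% v/v TCEP beads. Acrylamide rate constants for Cdk2 were divided by those with model thiol.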

Cdk2(H71C) (C177A) = biological target: T3, Cdk2(H71C) (C177A) (Homo sapiens, UniProt P24941, C177A/H71C); assay: Kinetic thiol consumption assay with Cdk2 mutant H71C; type: binding; design: key to Rate enhancement, Cdk2 H71C: rate constant with Cdk2 ÷ rate constant with model thiol (fold); conditions: additional mutation C177A; for Rate constant with Cdk2 H71C: Protein: Cdk2, cysteine position H71C, in h^-1
T3 construct: poly-histidine; made in house; host or cells: E. coli
Method in brief: as §1

Cdk2(S276C) (C177A) = biological target: T4, Cdk2(S276C) (C177A) (Homo sapiens, UniProt P24941, C177A/S276C); assay: Kinetic thiol consumption assay with Cdk2 mutant S276C; type: binding; design: key to Rate enhancement, Cdk2 S276C: rate constant with Cdk2 ÷ rate constant with model thiol (fold); conditions: additional mutation C177A; for Rate constant with Cdk2 S276C: Protein: Cdk2, cysteine position S276C, in h^-1
T4 construct: poly-histidine; made in house; host or cells: E. coli
Method in brief: as §1

Cdk2(T182C) (C177A) = biological target: T5, Cdk2(T182C) (C177A) (Homo sapiens, UniProt P24941, C177A/T182C); assay: Kinetic thiol consumption assay with Cdk2 mutant T182C; type: binding; design: key to Rate enhancement, Cdk2 T182C: rate constant with Cdk2 ÷ rate constant with model thiol (fold); conditions: additional mutation C177A; for Rate constant with Cdk2 T182C: Protein: Cdk2, cysteine position T182C, in h^-1
T5 construct: poly-histidine; made in house; host or cells: E. coli
Method in brief: as §1

Cdk2[C177A, F80C, K278C] = biological target: T6, Cdk2[C177A, F80C, K278C] (Homo sapiens, UniProt P24941, C177A/F80C/K278C); assay: Kinetic thiol consumption assay with mutant Cdk2 as model thiol; type: binding; design: unit not given here; conditions: 500 μM ligand, 5 μM thiol, phosphate buffer pH 8
T6 construct: poly-histidine; made in house; host or cells: E. coli
Method: A library of 120 acrylamides was screened against a) human cyclin-dependent kinase 2 (Cdk2, which contains one surface exposed cysteine residue—C177), prepared by cloning cDNA into the pRSETA bacterial expression vector to generate a poly-histidine tagged Cdk2 fusion that was purified from E. coli using standard techniques, and b) a model thiol (specific details are given below). The structures of these 120 acrylamides are set out in Table 1, above.
To wells containing 150 μL thiol (Cdk2 or model thiol) (5 μM) in degassed phosphate buffer (pH 8) was added immobilized TCEP beads (2% v/v).
After incubation of the fluorescence plates for 1 hour at room temperature, fluorescence measurements (excitation/emission of 380/470 nm) were taken on a PerkinElmer EnVision multilabel plate reader and processed with EnVision Workstation version 1.12.
Fluorescence measurements were normalized against a DMSO/thiol only control and plotted against time.
Rate constants were calculated using GraphPad software Prism version 6 by fitting a first order exponential decay to the data. The rate constant for each acrylamide with Cdk2 was divided by the rate constant for that fragment with the model thiol to provide the rate enhancement for each ligand candidate.
The model thiol used in Example 2 is a mutant form of human Cdk2 (C177A, F80C, K278C) which contains two engineered surface exposed cysteine residues. Mutations were introduced by site-directed mutagenesis and the resulting cDNA was cloned into the pRSETA bacterial expression vector to generate a poly-histidine tagged Cdk2 fusion that was purified from E. coli using standard techniques.

Cdk2(S181C) (C177A) = biological target: T7, Cdk2(S181C) (C177A) (Homo sapiens, UniProt P24941, C177A/S181C); assay: Kinetic thiol consumption assay with Cdk2 mutant S181C; type: binding; design: key to Rate enhancement, Cdk2 S181C: rate constant with Cdk2 ÷ rate constant with model thiol (fold); conditions: additional mutation C177A; for Rate constant with Cdk2 S181C: Protein: Cdk2, cysteine position S181C, in h^-1
T7 construct: poly-histidine; made in house; host or cells: E. coli
Method in brief: as §1

[1] = Kinetic thiol consumption assay with model thiol glutathione; type: physicochemical; design: Rate constant with glutathione (k(GSH)): unit not given here; conditions: for Rate constant with glutathione (k(GSH)): 500 μM ligand, 5 μM thiol, phosphate buffer pH 8; for Rate constant with Glutathione: Protein: Glutathione, cysteine position NA, in h-1
Method in brief: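 Rate constants for acrylamide reaction with 5 μM glutathione come from first-order exponential fits of normalized fluorescence decay (ex 380, em 470 nm). Reactions run in degassed phosphate buffer at pH 8 containing TCEP beads, room temperature.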

Cdk2(R122C) (C177A) = biological target: T8, Cdk2(R122C) (C177A) (Homo sapiens, UniProt P24941, C177A/R122C); assay: Kinetic thiol consumption assay with Cdk2 mutant R122C; type: binding; design: key to Rate enhancement, Cdk2 R122C: rate constant with Cdk2 ÷ rate constant with model thiol (fold); conditions: additional mutation C177A; for Rate constant with Cdk2 R122C: Protein: Cdk2, cysteine position R122C, in h-1
T8 construct: poly-histidine; made in house; host or cells: E. coli
Method in brief: as §1

[2] = biological target: T9, human cyclin-dependent kinase 2 (Cdk2) (Homo sapiens, UniProt P24941); assay: Kinetic thiol consumption assay with wild type Cdk2 (C177); type: binding; design: key to Rate enhancement, Cdk2 WT: k(Cdk2) divided by k(model thiol); Rate constant with Cdk2 (k(Cdk2)): unit not given here; conditions: for Rate constant with Cdk2 (k(Cdk2)): 500 μM ligand, 5 μM thiol, phosphate buffer pH 8; for Rate enhancement, Cdk2 WT: no additional mutations; for Rate constant with Cdk2 WT: Protein: Cdk2, cysteine position WT, in h^-1; for k(Cdk2)/k(Cdk2_mut) rate enhancement: model thiol Cdk2[C177A, F80C, K278C]; for k(Cdk2)/k(GSH) rate enhancement: model thiol glutathione
T9 construct: poly-histidine; made in house; host or cells: E. coli
Method in brief: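 Thiol 5 μM (Cdk2 or model thiol), degassed phosphate buffer pH 8, TCEP beads 2% v/v. Plates incubated 1 h RT, ex/em 380/470 nm. First-order decay fit → rate constant; ratio Cdk2/model thiol = rate enhancement.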

Row | Structure (SMILES) | Rate enhancement, Cdk2 F80C (Cdk2(C177A, F80C)) | Rate constant with Cdk2 F80C (Cdk2(C177A, F80C)) | Rate enhancement, Cdk2 N272 (Cdk2(N272C) (C177A)) | Rate constant with Cdk2 N272C (Cdk2(N272C) (C177A)) | Rate enhancement, Cdk2 H71C (Cdk2(H71C) (C177A)) | Rate constant with Cdk2 H71C (Cdk2(H71C) (C177A)) | Rate enhancement, Cdk2 S276C (Cdk2(S276C) (C177A)) | Rate enhancement, Cdk2 T182C (Cdk2(T182C) (C177A)) | Rate constant with Cdk2 T182C (Cdk2(T182C) (C177A)) | Rate constant with Cdk2[C177A, F80C, K278C] (k(Cdk2_mut)) (Cdk2[C177A, F80C, K278C]) | Rate enhancement, Cdk2 S181C (Cdk2(S181C) (C177A)) | Rate constant with Cdk2 S181C (Cdk2(S181C) (C177A)) | Rate constant with glutathione (k(GSH)) [1] | Rate constant with Glutathione [1] | Rate enhancement, Cdk2 R122C (Cdk2(R122C) (C177A)) | Rate constant with Cdk2 (k(Cdk2)) [2] | Rate enhancement, Cdk2 WT [2] | Rate constant with Cdk2 WT [2] | k(Cdk2)/k(Cdk2_mut) rate enhancement [2] | k(Cdk2)/k(GSH) rate enhancement [2] | further results
1 | C=CC(=O)NCc1ccc(-c2csnn2)cc1 [BN-66] | 2.336 | 0.003494 | 1.553 | 0.002323 | 0.7553 | 0.00113 | 0 | 3.479 | 0.005204 | 0.0035 | 0.8476 | 0.001268 | 0.0016 | 0.001496 | 0 | 0.00089 | 0.9753 | 0.001459 | 0.2541 | 0.5565 | 
2 | C=CC(=O)NC1CCN(Cc2ccccc2)CC1 [BN-78] | 0.2437 | 0.001773 | 0.5049 | 0.003673 | 0 |  | 0.1622 | 0.1316 | 0.0009576 | 0.00196 | 0.09002 | 0.0006548 | 0.00403 | 0.007274 | 0.2392 | 0.00116 | 0.1591 | 0.001157 | 0.5905 | 0.2873 | Rate constant with Cdk2 S276C (Cdk2(S276C) (C177A)): 0.00118; Rate constant with Cdk2 R122C (Cdk2(R122C) (C177A)): 0.00174
3 | C=CC(=O)Nc1cccc(C(F)(F)F)c1 [BN-80] | 1.308 | 0.03902 | 0.2072 | 0.006181 | 0.1247 | 0.003721 | 0.6024 | 4.026 | 0.1201 | 0.1284 | 0.4626 | 0.0138 | 0.02984 | 0.02983 | 0.5528 | 0.0419 | 1.405 | 0.0419 | 0.3263 | 1.404 | Rate constant with Cdk2 S276C (Cdk2(S276C) (C177A)): 0.01797; Rate constant with Cdk2 R122C (Cdk2(R122C) (C177A)): 0.01649
